Experimental data as given in PubChem BioAssay (NCI).
“And” between values parts separate entries of the source, which are not always exact repeats. Identical values can stand only once.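 Five compound concentrations were applied to cells in 96-well plates for 48 hours; endpoints were derived by simple linear interpolation of the resulting dose-response curve. GI50 is the concentration that inhibits growth by half. TGI: concentration producing complete growth inhibition.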

Key:
Assay in all cases: growth of human tumour cells (NCI), 48 h
SR leukemia = tested on: SR leukemia
SNB-19 CNS = tested on: SNB-19 CNS
COLO 205 colon = tested on: COLO 205 colon
HS 578T breast = tested on: HS 578T breast
UACC-257 melanoma = tested on: UACC-257 melanoma
SK-MEL-28 melanoma = tested on: SK-MEL-28 melanoma
SK-OV-3 ovarian = tested on: SK-OV-3 ovarian
SW-620 colon = tested on: SW-620 colon
SF-295 CNS = tested on: SF-295 CNS
U251 CNS = tested on: U251 CNS
UACC-62 melanoma = tested on: UACC-62 melanoma
KM12 colon = tested on: KM12 colon
NCI/ADR-RES ovarian = tested on: NCI/ADR-RES ovarian
M14 melanoma = tested on: M14 melanoma
HT29 colon = tested on: HT29 colon
HOP-92 NSCLC = tested on: HOP-92 NSCLC
NCI-H522 lung = tested on: NCI-H522 lung
T-47D breast = tested on: T-47D breast
TK-10 renal = tested on: TK-10 renal
SF-539 CNS = tested on: SF-539 CNS
OVCAR-4 ovarian = tested on: OVCAR-4 ovarian
IGROV1 ovarian = tested on: IGROV1 ovarian
A498 renal = tested on: A498 renal
ACHN renal = tested on: ACHN renal
BT-549 breast = tested on: BT-549 breast
SN12C renal = tested on: SN12C renal
A549 NSCLC = tested on: A549 NSCLC
NCI-H226 lung = tested on: NCI-H226 lung
PC-3 prostate = tested on: PC-3 prostate

## O=C(NNc1nc2cc(F)cc(F)c2n2cccc12)c1cccnn1
SR leukemia
  GI50: 147 nM and 43.1 nM
SNB-19 CNS
  GI50: 409 nM and 337 nM
COLO 205 colon
  GI50: 533 nM
  TGI: 5060 nM
HS 578T breast
  GI50: 3790 nM and 1130 nM
  TGI: 30000 nM and 36800 nM
UACC-257 melanoma
  GI50: 868 nM and 395 nM
  TGI: 3410 nM and 3630 nM
SK-MEL-28 melanoma
  GI50: 517 nM and 528 nM
  TGI: 12500 nM and 21600 nM
SK-OV-3 ovarian
  GI50: 441 nM and 344 nM
  TGI: 6480 nM and 6700 nM
SW-620 colon
  GI50: 363 nM and 289 nM
  TGI: 21100 nM and > 100000 nM
SF-295 CNS
  GI50: 175 nM and 73.5 nM
  TGI: 4600 nM and 2140 nM
U251 CNS
  GI50: 241 nM and 113 nM
  TGI: 13300 nM and 4420 nM
UACC-62 melanoma
  GI50: 305 nM and 329 nM
KM12 colon
  GI50: 507 nM and 185 nM
  TGI: 30000 nM and > 100000 nM
NCI/ADR-RES ovarian
  GI50: 270 nM and 161 nM
  TGI: 3850 nM and 2190 nM
M14 melanoma
  GI50: 164 nM and 179 nM
HT29 colon
  GI50: 725 nM and 475 nM
  TGI: 30000 nM and 27200 nM
HOP-92 NSCLC
  GI50: 778 nM and 440 nM
  TGI: 8790 nM and 5340 nM
NCI-H522 lung
  GI50: 890 nM and 254 nM
T-47D breast
  GI50: 632 nM and 322 nM
  TGI: 11300 nM and 4180 nM
TK-10 renal
  GI50: 792 nM and 317 nM
  TGI: 20800 nM and 11300 nM
SF-539 CNS
  GI50: 396 nM and 314 nM
  TGI: 3870 nM and 3350 nM
OVCAR-4 ovarian
  GI50: 212 nM
  TGI: 8520 nM
IGROV1 ovarian
  GI50: 210 nM and 211 nM
  TGI: 4680 nM and 3640 nM
A498 renal
  GI50: 868 nM and 428 nM
  TGI: 4850 nM and 3080 nM
ACHN renal
  GI50: 164 nM and 165 nM
  TGI: 4140 nM and 3170 nM
BT-549 breast
  GI50: 520 nM and 291 nM
  TGI: 2260 nM and 9430 nM
SN12C renal
  GI50: 500 nM and 554 nM
  TGI: 16400 nM and 19900 nM
A549 NSCLC
  GI50: 378 nM and 215 nM
  TGI: 5720 nM and 3740 nM
NCI-H226 lung
  GI50: 341 nM and 799 nM
  TGI: 5640 nM and 7420 nM
PC-3 prostate
  GI50: 478 nM and 296 nM
  TGI: 30000 nM and > 100000 nM
